Measured values published in publication PMC13316224, “Expansion, functional diversification, and gene fusion events in the Ato protein family” (iScience, 2026).
pKi: −log10 of the molar value. Where two headings read alike, the source gives them in different places.

Assays:
Format in all cases: cell-based
CaAto1 (Ato1-GFP) [1] = biological target: T1, CaAto1 (Ato1-GFP) (Candida albicans, UniProt A0A1D8PHP8); assay: competition of […]acetate uptake in cells; conditions: 0.1 mM [14C]acetate, 10 mM competitor, pH 6.0, 30 °C, collective statement for most carboxylates, estimated from one concentration
T1 construct: gene FRP3; full length with C-terminal GFP at both native loci, in C. albicans cells (ATO1-GFP/ATO1-GFP)

CaAto1 (Ato1-GFP) [2] = biological target: T1, CaAto1 (Ato1-GFP); assay: competition of […]acetate uptake in cells; conditions: read-out: % inhibition at 10 mM
CaAto1 (Ato1-GFP) [3] = biological target: T1, CaAto1 (Ato1-GFP); assay: […]lactate uptake in cells, against ato1 deletion strain; conditions: pH 6.0, 30 °C, 1-24 mM; H+ symport; labelled compound

T1 sequence (A0A1D8PHP8 entry or part of it): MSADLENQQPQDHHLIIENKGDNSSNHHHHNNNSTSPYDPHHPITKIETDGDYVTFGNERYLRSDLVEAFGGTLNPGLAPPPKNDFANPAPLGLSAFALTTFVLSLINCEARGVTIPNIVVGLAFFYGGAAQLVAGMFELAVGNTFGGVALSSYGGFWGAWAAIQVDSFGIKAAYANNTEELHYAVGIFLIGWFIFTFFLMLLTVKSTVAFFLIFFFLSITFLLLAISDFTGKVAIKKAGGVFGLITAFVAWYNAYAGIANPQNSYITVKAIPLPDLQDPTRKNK

Row | SMILES | pKi (CaAto1 (Ato1-GFP) [1]) | other results
1 | O=CO [formate] | < 2.00 | –
2 | CC(=O)C(=O)O [pyruvate] | – | pKi (CaAto1 (Ato1-GFP) [1]; read-out: Ki): < 2.00
3 | C[C@H](O)C(=O)O [lactate] | – | pKi (CaAto1 (Ato1-GFP) [1]; read-out: Ki): < 2.00
4 | CCCC(=O)O [butyrate] | – | inhibition at 10000 µM (CaAto1 (Ato1-GFP) [2]): ~50%
5 | O=C(O)C[C@H](O)C(=O)O [malate] | < 2.00 | –
6 | C[C@H](O)C(=O)O [[14C]lactate] | – | [14C]lactate uptake in cells, against ato1 deletion strain (CaAto1 (Ato1-GFP) [3]): practically no lactate uptake was recorded in ato1Δ/Δ or ato1-10Δ/Δ strains
7 | O=C(O)CCC(=O)O [succinate] | < 2.00 | –
8 | O=C(O)CC(O)(CC(=O)O)C(=O)O [citrate] | < 2.00 | –
